Laboratory results from patent US6465478B1 (dated 2002).
Structures can show the parent of a compound that is named as a salt.

Row | Structure (SMILES) | melting point [°C]
1 | NCCCN1CN(c2ccccc2)C2(CCN(C3(c4ccccc4)CCCCCC3)CC2)C1=O (as salt: HCl) | 150 to 154
2 | O=C1N(CCN2CCCCC2)CN(c2ccccc2)C12CCN(C1(c3ccccc3)CCCCCC1)CC2 (as salt: HCl) | 174 to 178
3 | CC1(N2CCC3(CC2)C(=O)N(CCN2CCCCC2)CN3c2ccccc2)CCCCCC1 (as salt: HCl) | 50 to 53
4 | CC1(N2CCC3(CC2)C(=O)N(CCCN)CN3c2ccccc2)CCCCCC1 (as salt: HCl) | 216 to 220
5 | CC1(N2CCC3(CC2)C(=O)NCN3c2ccccc2)CCC=CCC1 (as salt: hydrochloride) | 251 to 254
